The values that follow come from patent US20250051338A1, “TYK2 DEGRADERS AND USES THEREOF” (Kymera Therapeutics, Inc., priority 2021, published 2025).

Format in all cases: cell-based
The target in assay [1] is T1, TYK2 (Homo sapiens, UniProt P29597). As to the kind of experiment: TYK2 degradation MSD assay in EBV-B cells. Details: endogenous in cells; host or cells: EBV-B cells. Particulars: 4 to 24 hours incubation, read-out: TYK2 MSD DC50 rating in EBV-B. The procedure, abridged:
(§1)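 DC50 values reflect dose-dependent decrease of TYK2 protein, read by MSD after cells were exposed to compound (top 1 to 10 μM, 1:3, 9 doses) for 4 to 24 hours at 37° C.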

Assay [2] addresses T1, TYK2. The assay is described as follows: TYK2 degradation MSD assay in human PBMC cells. The conditions noted are these: 4 to 24 hours incubation, read-out: TYK2 MSD DC50 rating in human PBMC. The arrangement: endogenous in cells; host or cells: human PBMC. The procedure, abridged: as §1
Assay [3] addresses T1, TYK2. The assay is described as follows: TYK2 degradation MSD assay in OCI-LY10 cells. Details: endogenous in cells; host or cells: EBV-B cells. Particulars: 4 to 24 hours incubation, read-out: TYK2 MSD DC50 rating in OCI-LY10. The procedure, abridged:
as §1

T1 sequence (P29597 whole entry): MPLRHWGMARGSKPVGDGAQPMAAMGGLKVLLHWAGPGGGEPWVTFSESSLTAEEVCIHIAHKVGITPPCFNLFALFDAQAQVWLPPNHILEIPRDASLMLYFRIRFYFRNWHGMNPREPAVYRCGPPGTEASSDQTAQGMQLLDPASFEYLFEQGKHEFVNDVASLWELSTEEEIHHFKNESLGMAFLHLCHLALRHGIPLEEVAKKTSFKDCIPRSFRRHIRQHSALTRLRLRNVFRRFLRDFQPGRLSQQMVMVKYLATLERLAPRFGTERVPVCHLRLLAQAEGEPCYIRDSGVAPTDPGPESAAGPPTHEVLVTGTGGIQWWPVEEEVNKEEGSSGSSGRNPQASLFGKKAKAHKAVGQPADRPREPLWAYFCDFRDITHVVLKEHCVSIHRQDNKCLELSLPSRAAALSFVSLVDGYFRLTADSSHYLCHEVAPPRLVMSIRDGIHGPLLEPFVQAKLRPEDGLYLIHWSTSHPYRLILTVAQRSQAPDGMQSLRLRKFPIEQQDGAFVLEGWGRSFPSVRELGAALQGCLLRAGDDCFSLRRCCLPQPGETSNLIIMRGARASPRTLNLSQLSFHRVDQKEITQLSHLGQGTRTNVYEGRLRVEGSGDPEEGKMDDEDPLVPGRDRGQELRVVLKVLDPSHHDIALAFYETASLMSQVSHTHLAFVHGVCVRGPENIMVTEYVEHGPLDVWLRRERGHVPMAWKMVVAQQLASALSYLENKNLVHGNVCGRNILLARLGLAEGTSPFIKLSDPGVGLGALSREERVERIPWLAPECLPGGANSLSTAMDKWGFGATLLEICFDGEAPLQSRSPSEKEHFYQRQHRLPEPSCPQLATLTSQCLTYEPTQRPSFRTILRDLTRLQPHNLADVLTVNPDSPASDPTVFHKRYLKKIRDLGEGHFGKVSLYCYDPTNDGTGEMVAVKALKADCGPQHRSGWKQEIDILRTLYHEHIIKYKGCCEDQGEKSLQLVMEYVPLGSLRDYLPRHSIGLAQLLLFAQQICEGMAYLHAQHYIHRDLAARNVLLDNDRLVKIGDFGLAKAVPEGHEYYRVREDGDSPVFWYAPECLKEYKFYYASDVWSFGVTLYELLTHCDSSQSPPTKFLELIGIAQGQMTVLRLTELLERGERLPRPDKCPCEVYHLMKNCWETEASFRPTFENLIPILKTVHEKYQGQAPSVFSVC

A word on the DC50: it is the concentration giving 50% degradation. For `CNc1cc(-c2cn(C)c3c(-c4ccc(CN5CCN(c6ccc(-c7ccc8c(c7)n(C)c(=O)n8C7CCC(=O)NC7=O)cc6)CC5)cc4)cccc23)nn2c(C(=O)N[C@@H]3C[C@@H]3F)cnc12` (stereo partly drawn) [Example K532], the half-maximal degradation concentration (DC50) on TYK2 [1], on TYK2 [2] and on TYK2 [3] was > 100 nM in each case.
Consider `CNc1cc(Nc2cccc(-c3ccc(CN4CCN(c5ccc(-c6ccc7c(c6)n(C)c(=O)n7C6CCC(=O)NC6=O)cc5)CC4)cn3)c2)nn2c(-c3cn(C(C)C)nn3)cnc12` (stereo not drawn) [Example K534], for which the DC50 was > 100 nM on TYK2 [1], > 100 nM at TYK2 [2] and 1 to 10 nM at TYK2 [3].
`CCc1nn(-c2cccc(F)c2OC)c2cc(Nc3ccc(CN(C)C4CCN(c5cccc6c5n(C)c(=O)n6C5CCC(=O)NC5=O)CC4)cn3)ncc12` (stereo not drawn) [Example K537]: the DC50 at TYK2 [1], on TYK2 [2] and at TYK2 [3] was > 100 nM each time.
As to `CNc1cc(Nc2cccc(-c3ccc(CN4CCN(c5ccc(-c6ccc7c(c6)n(C)c(=O)n7C6CCC(=O)NC6=O)cc5)CC4)cn3)c2OC)nn2c(C(=O)NC3CC3C)cnc12` (stereo not drawn) [Example K542], the DC50 at TYK2 [1] was > 100 nM; on TYK2 [2] it was > 100 nM; on TYK2 [3], 1 to 10 nM.
For the compound `CNc1cc(Oc2ccn(C3CCN(CC4CCN(c5ccc(-c6ccc7c(c6)n(C)c(=O)n7C6CCC(=O)NC6=O)cc5)CC4)CC3)n2)nn2c(C(=O)N[C@@H]3C[C@@H]3F)cnc12` (stereo partly drawn) [Example K549], the DC50 at TYK2 [1], on TYK2 [2] and at TYK2 [3] was > 100 nM in each case.
`CNc1cc(-c2ccc(C3CCN(CC4CCN(c5ccc(-c6ccc7c(c6)n(C)c(=O)n7C6CCC(=O)NC6=O)cc5)CC4)CC3)cc2)c2n3c(cnc13)C(=O)N(C1CC1)C2` (stereo not drawn) [Example K550]: the DC50 on TYK2 [1], on TYK2 [2] and at TYK2 [3] was > 100 nM each time.
As for `CNc1cc(N2CCc3c(N4CCC(CN5CCN(c6ccc(-c7ccc8c(c7)n(C)c(=O)n8C7CCC(=O)NC7=O)cc6)CC5)CC4)cccc32)nn2c(C(=O)N[C@@H]3C[C@@H]3F)cnc12` (stereo partly drawn) [Example K551], the 50% degradation concentration (DC50) was 1 to 10 nM at TYK2 [1], > 100 nM on TYK2 [2] and > 100 nM at TYK2 [3].
For the compound `O=C1CCN(c2cc(C(=O)N3CCC4(CC3)CN(Cc3ccc(-c5cccc6c5CCN6c5ccc6ncc(C(=O)NC7CC7)n6n5)nc3)C4)ccc2Cl)C(=O)N1` [Example K554], the half-maximal degradation concentration (DC50) at TYK2 [1], on TYK2 [2] and at TYK2 [3] was > 100 nM throughout.
As for `Cn1c(=O)n(C2CCC(=O)NC2=O)c2ccc(-c3ccc(N4CCN(Cc5ccc(-c6cccc(Nc7nn8c(C(=O)N[C@@H]9C[C@@H]9F)cnc8c8c7OCCN8)c6)nc5)CC4)cc3)cc21` (stereo partly drawn) [Example K557], the figures for the half-maximal degradation concentration (DC50) on TYK2 [1], at TYK2 [2] and on TYK2 [3] were > 100 nM, > 100 nM and < 1 nM, respectively.
For the compound `CC#Cc1nn(-c2cccc(F)c2OC)c2cc(Nc3ccc(CN(C)C4CCN(c5cccc6c5n(C)c(=O)n6C5CCC(=O)NC5=O)CC4)cn3)ncc12` (stereo not drawn) [Example K558], the half-maximal degradation concentration (DC50) on TYK2 [1], on TYK2 [2] and at TYK2 [3] was > 100 nM in each case.
`CNc1cc(N2CCc3c(-c4ccc(CN5CCC(N6CCN(C(=O)c7ccc(Cl)c(N8CCC(=O)NC8=O)c7)CC6)CC5)cn4)cccc32)nn2c(C(=O)N[C@@H]3C[C@@H]3F)cnc12` [Example K559]: the values for the half-maximal degradation concentration (DC50) on TYK2 [1], on TYK2 [2] and at TYK2 [3] were > 100 nM, > 100 nM and 1 to 10 nM, respectively.
For `CNc1cc(Nc2cccn(-c3ccc(C(=O)NCCCCc4cncc(N5CCC[C@H](C(=O)Nc6ccc(=O)n(CC(=O)O)c6)C5)c4)cn3)c2=O)nn2c(C(=O)N[C@@H]3C[C@@H]3F)cnc12` [Example K561], the DC50 at TYK2 [1], at TYK2 [2] and on TYK2 [3] was > 100 nM throughout.
For the compound `CNc1cc(Nc2cccc(-c3ccc(CN4CCN(c5ccc(-c6ccc7c(c6)n(C)c(=O)n7C6CCC(=O)NC6=O)cc5)CC4)cn3)c2F)nn2c(C(=O)N[C@@H]3C[C@@H]3F)cnc12` (stereo partly drawn) [Example K563], the DC50 at TYK2 [1] is > 100 nM; at TYK2 [2], > 100 nM; at TYK2 [3], < 1 nM.
Turning to `CNc1cc(Nc2cccc(CN3CCN(c4ccc(-c5ccc6c(c5)n(C)c(=O)n6C5CCC(=O)NC5=O)cc4)CC3)c2Cl)nn2c(C(=O)N[C@@H]3C[C@@H]3F)cnc12` (stereo partly drawn) [Example K564], the half-maximal degradation concentration (DC50) was > 100 nM at TYK2 [1], > 100 nM at TYK2 [2] and < 1 nM at TYK2 [3].
`CNc1cc(-c2ccc(CN3CCN(c4ccc(-c5ccc6c(c5)n(C)c(=O)n6C5CCC(=O)NC5=O)cc4)CC3)cc2)nn2c(C(=O)N[C@@H]3C[C@@H]3F)cnc12` (stereo partly drawn) [Example K565]: the 50% degradation concentration (DC50) at TYK2 [1], at TYK2 [2] and on TYK2 [3] was > 100 nM each time.
`CNc1cc(N2CCc3c(-c4ccc(CN5CCN([C@H]6CC[C@H](c7ccc(-c8ccc9c(c8)n(C)c(=O)n9C8CCC(=O)NC8=O)cc7)CC6)CC5)cn4)cccc32)nn2c(C(=O)N[C@@H]3CC3F)cnc12` (stereo partly drawn) [Example K566]: the half-maximal degradation concentration (DC50) on TYK2 [1] is > 100 nM; at TYK2 [2] it was > 100 nM; at TYK2 [3], 1 to 10 nM.
Turning to `CNc1cc(Nc2cccc(-c3ccc(CN4CCN(C5CCC(c6ccc(-c7ccc8c(c7)n(C)c(=O)n8C7CCC(=O)NC7=O)cc6)CC5)CC4)cn3)c2OC)nn2c(C(=O)N[C@@H]3C[C@@H]3F)cnc12` (stereo partly drawn) [Example K567], the 50% degradation concentration (DC50) on TYK2 [1] is > 100 nM; at TYK2 [2], > 100 nM; on TYK2 [3], < 1 nM.
`CNc1cc(N2CCc3c(N4CCC(CC5CC6(CCN(C(=O)c7ccc(Cl)c(N8CCC(=O)NC8=O)c7)CC6)C5)CC4)cccc32)nn2c(C(=O)N[C@@H]3C[C@@H]3F)cnc12` [Example K568]: the values for the half-maximal degradation concentration (DC50) on TYK2 [1], on TYK2 [2] and at TYK2 [3] were > 100 nM, > 100 nM and 1 to 10 nM, respectively.
As for `CNc1cc(Nc2cccn(-c3ccc(C(=O)NCCCCCCCCc4cncc(N5CCC[C@H](C(=O)Nc6ccc(=O)n(CC(=O)O)c6)C5)c4)cn3)c2=O)nn2c(C(=O)N[C@@H]3C[C@@H]3F)cnc12` [Example K571], the DC50 on TYK2 [1], at TYK2 [2] and on TYK2 [3] was > 100 nM each time.
Regarding `CNc1cc(N2CCc3c(N4CCC(CN5CC6(C5)CN(c5ccc(-c7ccc8c(c7)n(C)c(=O)n8C7CCC(=O)NC7=O)cc5)C6)CC4)cccc32)nn2c(C(=O)N[C@@H]3C[C@@H]3F)cnc12` (stereo partly drawn) [Example K573], the 50% degradation concentration (DC50) at TYK2 [1] is > 100 nM; at TYK2 [2] it was > 100 nM; on TYK2 [3], 1 to 10 nM.
`CNc1cc(N2CCc3c(-c4ccc(CN5CC6(C5)CN(c5ccc(-c7ccc8c(c7)n(C)c(=O)n8C7CCC(=O)NC7=O)cc5)C6)cn4)cccc32)nn2c(C(=O)N[C@@H]3C[C@@H]3F)cnc12` (stereo partly drawn) [Example K574]: the half-maximal degradation concentration (DC50) on TYK2 [1] was > 100 nM; at TYK2 [2], > 100 nM; at TYK2 [3], 1 to 10 nM.
With `CNc1cc(Nc2cccc(CN3CCN(c4ccc(-c5ccc6c(c5)n(C)c(=O)n6C5CCC(=O)NC5=O)cc4)CC3)c2OC)nn2c(C(=O)N[C@@H]3C[C@@H]3F)cnc12` (stereo partly drawn) [Example K576], the 50% degradation concentration (DC50) at TYK2 [1], at TYK2 [2] and on TYK2 [3] was > 100 nM in each case.
Turning to `CNc1cc(Nc2cc(F)cc(-c3ccc(CN4CCN(c5ccc(-c6ccc7c(c6)n(C)c(=O)n7C6CCC(=O)NC6=O)cc5)CC4)cn3)c2OC)nn2c(C(=O)N[C@@H]3C[C@@H]3F)cnc12` (stereo partly drawn) [Example K577], the DC50 at TYK2 [1] is > 100 nM; on TYK2 [2], > 100 nM; on TYK2 [3], 1 to 10 nM.
For the compound `CNc1cc(Nc2cccc(CN3CCC(c4cccc5c4n(C)c(=O)n5C4CCC(=O)NC4=O)CC3)c2)nn2c(C(=O)NC3CC3)cnc12` (stereo not drawn) [Example K578], the 50% degradation concentration (DC50) on TYK2 [1], at TYK2 [2] and on TYK2 [3] was > 100 nM each time.
On to `CNc1cc(Nc2cccc(CN3CCC34CN(c3ncc(C#Cc5ccc6c(c5)n(C)c(=O)n6C5CCC(=O)NC5=O)cn3)C4)c2)nn2c(C(=O)NC3CC3)cnc12` (stereo not drawn) [Example K580], for which the half-maximal degradation concentration (DC50) at TYK2 [1], at TYK2 [2] and on TYK2 [3] was > 100 nM each time.
As for `CNc1cc(Nc2cccc(CN3CCC([C@@H]4CCN(c5ccc6c(c5)n(C)c(=O)n6C5CCC(=O)NC5=O)C4)CC3)c2)nn2c(C(=O)NC3CC3)ncc12` (stereo partly drawn) [Example K581], the DC50 is > 100 nM at TYK2 [1], > 100 nM at TYK2 [2] and < 1 nM at TYK2 [3].
`CNc1cc(Nc2cccc(CN3CCC4(CCCN(CCC5C=c6c(n(C7CCC(=O)NC7=O)c(=O)n6C)=CC5)C4)C3)c2)nn2c(C(=O)NC3CC3)cnc12` (stereo not drawn) [Example K582]: the half-maximal degradation concentration (DC50) at TYK2 [1], at TYK2 [2] and on TYK2 [3] was > 100 nM in each case.
Turning to `CNc1cc(Nc2cccc(CN3CCC(N(C)CC4CCN(c5ccc(-c6ccc7c(c6)n(C)c(=O)n7C6CCC(=O)NC6=O)cc5)C4)CC3)c2)nn2c(C(=O)NC3CC3)cnc12` (stereo not drawn) [Example K583], the DC50 was > 100 nM at TYK2 [1], > 100 nM on TYK2 [2] and < 1 nM on TYK2 [3].
Take `CNc1cc(Nc2cccc(CN3CCC4(CC3)CC(Cc3ccc5c(c3)n(C)c(=O)n5C3CCC(=O)NC3=O)C4)c2)nn2c(C(=O)NC3CC3)cnc12` (stereo not drawn) [Example K584]: the DC50 at TYK2 [1], at TYK2 [2] and at TYK2 [3] was > 100 nM in each case.
`CNc1cc(Nc2cccc(CN3CCC(c4ncc(-c5ccc6c(c5)n(C)c(=O)n6C5CCC(=O)NC5=O)cn4)CC3)c2)nn2c(C(=O)NC3CC3)cnc12` (stereo not drawn) [Example K585]: the DC50 was > 100 nM at TYK2 [1], > 100 nM on TYK2 [2] and 1 to 10 nM at TYK2 [3].
